Experimental data: EP0751957B1, “PEPTIDE FRAGMENTS OF MICROBIAL STRESS PROTEINS AND PHARMACEUTICAL COMPOSITION MADE THEREOF FOR THE TREATMENT AND PREVENTION OF INFLAMMATORY DISEASES” (priority 1994, dated 2004)
Entries after “also recorded” stand apart in the source; their conditions may differ.

Legend:
[1] = tested on: CP20961-induced arthritis; assay: CP20961-induced arthritis, clinical arthritis score; type: in vivo, Lewis rats; details: 100 µg peptide in DDA 7 days prior to 2 mg CP20961 in 100 µl mineral oil i.d.
Procedure: (§1) Induction and clinical assessment of experimental arthritis: Arthritis was induced by a single intradermal injection in the base of the tail. AA was induced with 0.5 mg Mt suspended in 100 µl IFA. CP20961 arthritis was induced with 2 mg CP20961 in 100 µl light mineral oil (Sigma). Rats were examined daily for clinical signs of arthritis. Severity of arthritis was assessed by scoring each paw from zero to four based on degree of swelling, erythema and deformity of the joints. Thus the maximum possible arthritis score was 16.
Modulation of arthritis with hsp65 peptides and epitope-specific T cell lines: Synthetic peptides corresponding to eight T cell epitopes present in mycobacterial hsp65 were tested for protective effects on arthritis development. Rats were immunised with 100 µg of individual peptide seven days prior to arthritis induction. Peptides were immunised in each hind footpad in 10 mg/ml DDA (50 µl/pad). Control rats received only PBS/DDA. Epitope-specific T cell lines were also tested for protective activity by intravenous administration of lines at the time of arthritis induction. T cell lines were restimulated in vitro with irradiated spleen APC and specific peptide. Four days later T cell blasts were harvested by ficoll gradient, washed and applied to a second ficoll gradient to remove any contaminating APC. […]

[2] = tested on: PLNC from preimmunised rats; assay: T cell proliferation assay, PLNC of peptide-preimmunised AA rats 42 days after Mt; type: cell-based, Lewis rats; details: rats preimmunised with the same peptide; peptide 20µg/ml
Procedure: (§2) Immunisations with synthetic peptides and primed lymph node populations: Rats were immunised with 50 µg of synthetic peptide in PBS/DDA in each hind footpad (i.e. 50 µg/footpad, 100 µg/rat). Ten days later, draining popliteal lymph nodes were removed, disaggregated, washed three times and used as a source of primed lymph node cells (PLNC). In some experiments, PLNC were derived as pooled inguinal and popliteal lymph nodes from AA rats 35-42 days post Mt immunisation.
(§3) T cell proliferation assays: PLNC were cultured in triplicate in 200 µl flat bottom microtitre wells (Costar) at 2 x 10^5 cells per well with or without antigen. In initial experiments PLNC were tested for responsiveness to individual peptides at concentrations of 5 and 20 µg/ml, and Mt, hsp65 and PPD over a range of concentrations. Concanavalin A (2 µg/ml) was used as a positive control for T cell proliferation. Cultures were incubated for 96 h at 37°C in a humidified atmosphere of 5% CO2. Cultures were pulsed for the final 16 h with [^3H] TdR (Amersham, U.K., 1 uCi/well) and TdR uptake measured using a liquid scintillation β counter. Assays using T cell lines were performed as above using 2 x 10^4 line cells per well with irradiated (30 Gy) syngeneic accessory cells (either 3 x 10^5 splenocytes/well or 10^6 thymocytes/well). Results are expressed as mean counts per minute (cpm) of triplicate cultures. In experiments where responses to Ag were low, responses were considered significant if the stimulation index (S.I. = mean cpm with Ag - mean cpm without Ag) was greater than two and Student's t tests gave p < 0.01.
PLNC from preimmunised rats were tested for responsiveness to hsp65 epitopes 42 days after Mt administration (Fig. 8). […] Responses to peptide 176-190 containing the AA-associated epitope were found in all PLNC populations (and enhanced after 176-190 preimmunisation) with one exception.

[3] = tested on: primed lymph node cells (PLNC); assay: T cell proliferation assay, PLNC from peptide-immunised rats; type: cell-based, Lewis rats; details: PLNC 10 days after immunisation with peptide 256-270 (100 µg/DDA); in vitro peptide 20 µg/ml
Procedure: as §2, §3
To determine whether immunisation of rats with synthetic peptides was effective at priming for T cell reactivity to hsp65 epitopes, in vitro proliferative responses following immunisation with 100 µg of peptide each containing individual T cell epitopes were examined. PLNC isolated ten days after immunisation were tested for response to the immunising peptide, overlapping peptides and to hsp65 (Table II). PLNC responses were observed after immunisation with seven of the nine peptides. Responses were not seen after immunisation with peptides 386-400 and 511-525.
(§4) T cell responses by immunisation with hsp65 peptides. Rats were immunised with synthetic peptides containing individual hsp65 epitopes (100 µg peptide/DDA per rat). Ten days later PLNC were isolated and tested for responses to overlapping peptides (20 µg/ml). Peptide-specific T cell lines were generated by bulk in vitro stimulation of PLNC with immunising peptide. Lines were tested for responses to overlapping peptides (10 µg/ml). […] Results are expressed as mean cpm of triplicate cultures. All SEM were less than 20%.

[4] = tested on: T cell; assay: T cell proliferative responses in humans (initial testing); type: cell-based; details: some autoimmune disease patients
From the text: Thus, already the rat-defined T cell epitopes themselves could be used for therapeutical intervention in some individuals (certain HLA types).

[5] = tested on: Peptide-specific T cell lines; assay: T cell proliferation assay, peptide-specific T cell lines from peptide-immunised rats; type: cell-based, Lewis rats
Procedure: as §3
T cell lines: T cell lines with specificity for mycobacterial hsp65 or peptides were generated by bulk stimulation of either hsp65-PLNC or Mt-PLNC. PLNC were cultured at 5 x 10^6/ml in culture medium supplemented with 2% normal rat serum (NRS) in the presence of 10 µg/ml Ag. After three days viable cells were harvested using a ficoll-isopaque gradient and cultured for a further four days in culture medium + 5% FCS and 5% TCGF (Con A-activated rat spleen supernatant). Seven days after initial stimulation lines were restimulated with irradiated spleen accessory cells and 10 µg/ml Ag in culture medium + NRS. Lines were maintained ir. this seven day restimulation cycle. Short term epitope-specific T cell lines were also generated from rats immunised with synthetic peptides. Peptide-PLNC were cultured as above in the presence of 10 µg/ml peptide.
Bulk stimulation generated T cell lines to eight of the nine peptides tested. These eight lines were tested for specificity after four in vitro restimulations (Table II). All responded to the immunising peptide and, to some extent, to hsp65.
as §4

[6] = tested on: T cell lines generated from hsp65-immunised rats; assay: T cell proliferation assay, epitope-specific T cell lines generated from hsp65-immunised rats; type: cell-based, Lewis rats; details: Line H.52
Procedure: as §3, with “In experiments where responses to Ag were low, responses were considered significant if the stimulation index (S.I. = mean cpm with Ag - mean cpm without Ag) was greater than two and Student's t tests gave p < 0.01.” left out
T cell lines were generated by restimulation of hsp65-PLNC with individual synthetic peptides. For epitopes where responses had been detected to two overlapping peptides, the line was generated using the peptide that induced strongest proliferation of hsp65-PLNC (e.g. for epitope 216-225, peptide 211-225 was used). […]

[7] = tested on: adjuvant arthritis; assay: Adjuvant arthritis (AA) induced with Mt in IFA, clinical arthritis score; type: in vivo, Lewis rats
Procedure: as §1
Modulation of arthritis with hsp65 peptides and epitope-specific T cell lines: Synthetic peptides corresponding to eight T cell epitopes present in mycobacterial hsp65 were tested for protective effects on arthritis development. Rats were immunised with 100 µg of individual peptide seven days prior to arthritis induction. Peptides were immunised in each hind footpad in 10 mg/ml DDA (50 µl/pad). Control rats received only PBS/DDA. Epitope-specific T cell lines were also tested for protective activity by intravenous administration of lines at the time of arthritis induction. T cell lines were restimulated in vitro with irradiated spleen APC and specific peptide. Four days later T cell blasts were harvested by ficoll gradient, washed and applied to a second ficoll gradient to remove any contaminating APC. T cells were washed twice in wash medium and twice in PBS and finally suspended at 2.5x10^7/ml in PBS. Immediately prior to injection of Mt, 200 µl (i.e. 5x10^6) T cells were injected i.v. in the tail vein.
The effects of preimmunisation with synthetic peptides containing individual epitopes on the development of AA were analysed (Fig. 7). The eight peptides which primed for epitope specific T cells were tested. Rats were immunised with 100 µg of peptide 7 days prior to AA-induction with Mt.

**Q.** Which results are given for “peptide 256-270: synthetic 15mer, sequence 256-270 of SEQ ID No.1 (mycobacterial hsp65)”?
**A.** protection against CP20961-induced arthritis after peptide preimmunisation [1]: strongly protected; PLNC response to the immunising peptide 42 days after Mt administration [2]: marginal PLNC responses; CPM PLNC [3]: 16423 cpm; T cell proliferative responses in autoimmune disease patients [4]: capable of inducing T cell proliferative responses; CPM T Cell Line ([5]; T cell line from 256-270-immunised PLNC, in vitro peptide 10 µg/ml): 69037 cpm; response of the line generated against M.256-270 (line P.m52) ([5]; irradiated syngeneic spleen APC): responded; level of proliferation relative to the rat peptide [6]: five to ten fold higher; protection against AA development after peptide preimmunisation ([7]; 100 µg peptide in DDA, hind footpads, 7 days prior to AA induction with Mt): striking protective effect; also recorded: strong protection; also recorded: clear protective effects; mean maximum arthritis score ([7]; 100 µg peptide in DDA, hind footpads, 7 days prior to AA induction with Mt, 24 rats in five experiments, maximum possible score 16): 1.7; protection against AA development after peptide preimmunisation ([7]; 100 µg peptide in DDA, hind footpads, 7 days prior to AA induction with Mt, listed as hsp65 256-270): Protection was observed; rats that developed clinical signs of arthritis ([7]; of the 24 rats preimmunised with peptide, signs milder than in control rats): twelve; permanent joint deformities ([7]; preimmunised rats that developed AA): remarkably free of permanent deformities
